Test results published in patent US20240408140A1, “ENHANCING ANTICANCER FUNCTION OF NATURAL KILLER CELL THROUGH REGULATION OF ANTIOXIDANT MECHANISM” (priority 2021, published 2024).

Test system: Yac-1 cell line
Experiment: Cytotoxicity of NK cells cultured in NK cell activation medium including antioxidants, co-culture with Yac-1 cells
Details: mouse spleen NK cells cultured 30-60 minutes in medium with 1 mM N-acetylcysteine or 0.5 mM TEMPOL; compared with normal NK cells (control) (FIG. 6)
Procedure: NK cell activation media were prepared as follows. In an NK cell culture medium obtained by mixing 10% FBS, 1× penicillin/streptomycin, 1× glutamax, 1× HEPES, 0.5 mM sodium pyruvate, 50 μM 2-mercaptoethanol, and 50 ng/ml interleukin-2 (IL-2) in RPMI1640 medium, 1 mM N-acetylcysteine or 0.5 mM 4-hydroxy-2,2,6,6-tetramethylpiperidine 1-oxyl (TEMPOL) was blended.
The Yac-1 cell line was added in RPMI1640 (10% FBS/RPMI1640) medium including 10% FBS, treated with 5 μg/ml Calcein AM (Invitrogen, C1430), and cultured for 1 hour in a cell culture machine at 37° C. in the presence of 5% carbon dioxide conditions to label with fluorescence. Afterwards, the NK cells and fluorescence-labeled Yac-1 cells were mixed in a ratio of 10:1, 5:1, and 1:1 and dispensed in a round bottom 96-well plate (SPL, #34096). Additionally, fluorescence-labeled Yac-1 cells were also dispensed into the wells of the maximum (Maximum, 10% FBS/RPMI1640 including 2% Triton X-100) and minimum (Minimum, 10% FBS/RPMI1640) to calculate the cytotoxicity rate. […] After culture for 4 hours, the medium was mixed well and centrifuged at 100×g for 5 minutes, the supernatant was transferred to a black plate (SPL, #30296), and fluorescence was measured using a fluorescence microplate reader. […]
Cytotoxicity=[(Test fluorescence−minimum fluorescence)/(maximum fluorescence−minimum fluorescence)]×100 [Equation 1] […]

CC1(C)CC(O)CC(C)(C)N1[O] [Tempol, 4-hydroxy-2,2,6,6-tetramethylpiperidine 1-oxyl]
cytotoxicity: higher cytotoxicity than normal NK cells
